The text below walks through data of publication PMC9386376, “Discovery of spirooxindole-derived small-molecule compounds as novel HDAC/MDM2 dual inhibitors and investigation of their anticancer activity” (Frontiers in Oncology, 2022).

The target in one data set is T1, GST-tagged MDM2 (Homo sapiens, UniProt Q00987).
T1 construct: purchased Cisbio Co. Ltd
As to the kind of experiment: HTRF enzyme inhibition assay, MDM2. Type of data set: biochemical. The following applies: compound at 1 μM. The method, then: The enzymatic assay of test compounds is using the HTRF-based method provided by Cisbio Co. Ltd. In brief, the target compounds to be tested were prepared into samples with a concentration of 1 μM, which was added to GST-tagged MDM2 and HDAC1 proteins, respectively, then biotinylated substrate p53 peptide and HTRF detection reagents were added. The data obtained were processed by the ratio method, and the inhibition rates of MDM2 and HDAC1 were calculated. The detailed experimental procedures are according to the manufacturer’s protocols.

A further data set has as its target HDAC1 (Homo sapiens, UniProt Q13547). As to the kind of experiment: HTRF enzyme inhibition assay, HDAC1. The following applies: for inhibition at 1 µM: read-out: % enzyme inhibition HDAC; for % enzyme inhibition HDAC: compound at 1 μM, HTRF, method names HDAC1 protein.

Sequence of HDAC1 (Q13547 whole entry): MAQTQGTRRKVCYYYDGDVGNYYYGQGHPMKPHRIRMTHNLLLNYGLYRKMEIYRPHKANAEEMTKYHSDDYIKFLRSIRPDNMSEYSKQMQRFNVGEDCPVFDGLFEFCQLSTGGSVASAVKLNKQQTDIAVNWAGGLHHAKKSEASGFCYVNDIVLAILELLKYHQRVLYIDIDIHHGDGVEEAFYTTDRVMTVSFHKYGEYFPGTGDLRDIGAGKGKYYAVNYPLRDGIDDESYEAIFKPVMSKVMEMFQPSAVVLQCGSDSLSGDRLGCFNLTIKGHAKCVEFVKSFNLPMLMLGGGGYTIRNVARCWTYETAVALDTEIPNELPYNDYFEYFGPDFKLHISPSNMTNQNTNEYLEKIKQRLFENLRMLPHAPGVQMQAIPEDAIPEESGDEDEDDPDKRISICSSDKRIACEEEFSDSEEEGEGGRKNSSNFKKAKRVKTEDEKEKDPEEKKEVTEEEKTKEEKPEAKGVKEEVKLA
T1 sequence (Q00987 whole entry): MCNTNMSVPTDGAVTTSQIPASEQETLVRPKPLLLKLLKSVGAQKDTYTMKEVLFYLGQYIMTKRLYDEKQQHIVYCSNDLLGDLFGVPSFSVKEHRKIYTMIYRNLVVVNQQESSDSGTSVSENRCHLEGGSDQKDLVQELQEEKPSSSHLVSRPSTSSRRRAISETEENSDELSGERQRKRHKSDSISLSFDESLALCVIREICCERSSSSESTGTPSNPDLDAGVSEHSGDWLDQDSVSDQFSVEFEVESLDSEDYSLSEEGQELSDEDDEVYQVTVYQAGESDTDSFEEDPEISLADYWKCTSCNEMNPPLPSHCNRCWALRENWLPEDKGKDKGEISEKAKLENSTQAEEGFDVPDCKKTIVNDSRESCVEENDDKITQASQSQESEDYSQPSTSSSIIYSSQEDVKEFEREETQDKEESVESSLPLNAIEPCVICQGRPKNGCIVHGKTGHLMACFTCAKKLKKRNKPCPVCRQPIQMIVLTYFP

In turn, `O=C(CCCCCCC(=O)Nc1ccc([C@@H]2[C@H]3CSCN3[C@]3(C(=O)Nc4ccccc43)[C@H]2C(=O)c2ccccc2)cc1)NO` [7a, N^1-(4-((3R,6'S,7'R,7a'S)-6'-benzoyl-2-oxo-1',6',7',7a'-tetrahydro-3'H-spiro[indoline-3,5'-pyrrolo[1,2-c]thiazol]-7'-yl)phenyl)-N^8-hydroxyoctanediamide] returned a melting point of 144.7 to 146.1 °C. The same compound came in with an inhibition at 1 µM against GST-tagged MDM2 of 39%. For the same compound, on HDAC1, the inhibition at 1 µM was 69%.
On to `Cc1ccc2c(c1)[C@@]1(C(=O)N2)[C@@H](C(=O)c2ccccc2)[C@H](c2ccc(NC(=O)CCCCCCC(=O)NO)cc2)[C@H]2CSCN21` [7b, N^1-(4-((3R,6'S,7'R,7a'S)-6'-benzoyl-5-methyl-2-oxo-1',6',7',7a'-tetrahydro-3'H-spiro[indoline-3,5'-pyrrolo[1,2-c]thiazol]-7'-yl)phenyl)-N^8-hydroxyoctanediamide], for which the melting point fell in the range of 144.2 to 145.6 °C. Besides, the inhibition at 1 µM against GST-tagged MDM2 is 45%. The inhibition at 1 µM on HDAC1 turned out to be 71%.
Compound `O=C(CCCCCCC(=O)Nc1ccc([C@@H]2[C@H]3CSCN3[C@]3(C(=O)Nc4ccc(F)cc43)[C@H]2C(=O)c2ccccc2)cc1)NO` [7c, N^1-(4-((3R,6'S,7'R,7a'S)-6'-benzoyl-5-fluoro-2-oxo-1',6',7',7a'-tetrahydro-3'H-spiro[indoline-3,5'-pyrrolo[1,2-c]thiazol]-7'-yl)phenyl)-N^8-hydroxyoctanediamide] returned a melting point of 144.3 to 145.7 °C. The compound further gave an inhibition at 1 µM at GST-tagged MDM2 of 51%. In addition, the inhibition at 1 µM at HDAC1 is 68%.
As to `O=C(CCCCCCC(=O)Nc1ccc([C@@H]2[C@H]3CSCN3[C@]3(C(=O)Nc4ccc(Cl)cc43)[C@H]2C(=O)c2ccccc2)cc1)NO` [7d, N^1-(4-((3R,6'S,7'R,7a'S)-6'-benzoyl-5-chloro-2-oxo-1',6',7',7a'-tetrahydro-3'H-spiro[indoline-3,5'-pyrrolo[1,2-c]thiazol]-7'-yl)phenyl)-N^8-hydroxyoctanediamide], the melting point was 154.6 to 156.2 °C. At GST-tagged MDM2, at 1 µM the inhibition was 49%. For the same compound, the inhibition at 1 µM at HDAC1 was 67%.
Turning to `O=C(CCCCCCC(=O)Nc1ccc([C@@H]2[C@H]3CSCN3[C@]3(C(=O)Nc4ccc(Br)cc43)[C@H]2C(=O)c2ccccc2)cc1)NO` [7e, N^1-(4-((3R,6'S,7'R,7a'S)-6'-benzoyl-5-bromo-2-oxo-1',6',7',7a'-tetrahydro-3'H-spiro[indoline-3,5'-pyrrolo[1,2-c]thiazol]-7'-yl)phenyl)-N^8-hydroxyoctanediamide], the melting point was in the range of 146.8 to 148 °C. This compound also yielded an inhibition at 1 µM against GST-tagged MDM2 of 48%. Further, the inhibition at 1 µM on HDAC1 was found to be 72%.
Compound `O=C(CCCCCCC(=O)Nc1ccc([C@@H]2[C@H]3CSCN3[C@]3(C(=O)Nc4cc(Br)ccc43)[C@H]2C(=O)c2ccccc2)cc1)NO` [7g, N^1-(4-((3R,6'S,7'R,7a'S)-6'-benzoyl-6-bromo-2-oxo-1',6',7',7a'-tetrahydro-3'H-spiro[indoline-3,5'-pyrrolo[1,2-c]thiazol]-7'-yl)phenyl)-N^8-hydroxyoctanediamide] yielded a melting point of 149.8 to 152.1 °C. Further, the inhibition at 1 µM against GST-tagged MDM2 came out at 59%. The inhibition at 1 µM on HDAC1 turned out to be 68%.
As for `Cc1cccc2c1NC(=O)[C@@]21[C@@H](C(=O)c2ccccc2)[C@H](c2ccc(NC(=O)CCCCCCC(=O)NO)cc2)[C@H]2CSCN21` [7h, N^1-(4-((3R,6'S,7'R,7a'S)-6'-benzoyl-7-methyl-2-oxo-1',6',7',7a'-tetrahydro-3'H-spiro[indoline-3,5'-pyrrolo[1,2-c]thiazol]-7'-yl)phenyl)-N^8-hydroxyoctanediamide], the melting point was 142.7 to 143.9 °C. In addition, the inhibition at 1 µM on GST-tagged MDM2 was determined as 23%. In addition, at HDAC1, the inhibition at 1 µM was determined as 71%.
For the compound `O=C(CCCCCCC(=O)Nc1ccc([C@@H]2[C@H]3CSCN3[C@]3(C(=O)Nc4c(Br)cccc43)[C@H]2C(=O)c2ccccc2)cc1)NO` [7i, N^1-(4-((3R,6'S,7'R,7a'S)-6'-benzoyl-7-bromo-2-oxo-1',6',7',7a'-tetrahydro-3'H-spiro[indoline-3,5'-pyrrolo[1,2-c]thiazol]-7'-yl)phenyl)-N^8-hydroxyoctanediamide], the melting point lay within 137.5 to 138.9 °C. The compound also yielded an inhibition at 1 µM against GST-tagged MDM2 of 30%. Also, the inhibition at 1 µM on HDAC1 is 67%.
`COc1ccc2c(c1)[C@@]1(C(=O)N2)[C@@H](C(=O)c2ccccc2)[C@H](c2ccc(NC(=O)CCCCCCC(=O)NO)cc2)[C@H]2CSCN21` [7j, N^1-(4-((3R,6'S,7'R,7a'S)-6'-benzoyl-5-methoxy-2-oxo-1',6',7',7a'-tetrahydro-3'H-spiro[indoline-3,5'-pyrrolo[1,2-c]thiazol]-7'-yl)phenyl)-N^8-hydroxyoctanediamide] returned a melting point of 134.9 to 136.2 °C. This compound had an inhibition at 1 µM at GST-tagged MDM2 of 50%. Besides, at HDAC1, the inhibition at 1 µM worked out at 70%.
With `COc1ccc2c(c1)NC(=O)[C@@]21[C@@H](C(=O)c2ccccc2)[C@H](c2ccc(NC(=O)CCCCCCC(=O)NO)cc2)[C@H]2CSCN21` [7k, N^1-(4-((3R,6'S,7'R,7a'S)-6'-benzoyl-6-methoxy-2-oxo-1',6',7',7a'-tetrahydro-3'H-spiro[indoline-3,5'-pyrrolo[1,2-c]thiazol]-7'-yl)phenyl)-N^8-hydroxyoctanediamide], the inhibition at 1 µM at GST-tagged MDM2 is 54%; at HDAC1, 70%.
Consider `COc1cccc(C(=O)[C@H]2[C@H](c3ccc(NC(=O)CCCCCCC(=O)NO)cc3)[C@H]3CSCN3[C@]23C(=O)Nc2ccccc23)c1` [7l, N^1-hydroxy-N^8-(4-((3R,6'S,7'R,7a'S)-6'-(3-methoxybenzoyl)-2-oxo-1',6',7',7a'-tetrahydro-3'H-spiro[indoline-3,5'-pyrrolo[1,2-c]thiazol]-7'-yl)phenyl)octanediamide], for which the melting point was 121.6 to 122.8 °C. The compound also gave an inhibition at 1 µM against GST-tagged MDM2 of 44%. Moreover, the inhibition at 1 µM at HDAC1 stood at 62%.
Compound `CN(C)c1ccc(C(=O)[C@H]2[C@H](c3ccc(NC(=O)CCCCCCC(=O)NO)cc3)[C@H]3CSCN3[C@]23C(=O)Nc2ccccc23)cc1` [7m, N^1-(4-((3R,6'S,7'R,7a'S)-6'-(4-(dimethylamino)benzoyl)-2-oxo-1',6',7',7a'-tetrahydro-3'H-spiro[indoline-3,5'-pyrrolo[1,2-c]thiazol]-7'-yl)phenyl)-N^8-hydroxyoctanediamide] showed a melting point of 148.7 to 150 °C. The same compound came in with an inhibition at 1 µM on GST-tagged MDM2 of 40%. Besides, the inhibition at 1 µM at HDAC1 worked out at 68%.
For the compound `O=C(CCCCCCC(=O)Nc1ccc([C@@H]2[C@H]3CSCN3[C@]3(C(=O)Nc4ccccc43)[C@H]2C(=O)c2cccc(Br)c2)cc1)NO` [7n, N^1-(4-((3R,6'S,7'R,7a'S)-6'-(3-bromobenzoyl)-2-oxo-1',6',7',7a'-tetrahydro-3'H-spiro[indoline-3,5'-pyrrolo[1,2-c]thiazol]-7'-yl)phenyl)-N^8-hydroxyoctanediamide], the melting point lay in the range of 120.2 to 121.5 °C. The inhibition at 1 µM at GST-tagged MDM2 was 43%. Moreover, the inhibition at 1 µM on HDAC1 was found to be 69%.
The matching figures for `O=C(CCC(=O)Nc1ccc([C@@H]2[C@H]3CSCN3[C@]3(C(=O)Nc4ccccc43)[C@H]2C(=O)c2ccccc2)cc1)NO` [7o, N^1-(4-((3R,6'S,7'R,7a'S)-6'-benzoyl-2-oxo-1',6',7',7a'-tetrahydro-3'H-spiro[indoline-3,5'-pyrrolo[1,2-c]thiazol]-7'-yl)phenyl)-N^4-hydroxysuccinamide]: 145.1 to 146.3 °C, 43% and 54%.
The like results for `O=C(CCCCC(=O)Nc1ccc([C@@H]2[C@H]3CSCN3[C@]3(C(=O)Nc4ccccc43)[C@H]2C(=O)c2ccccc2)cc1)NO` [7p, N^1-(4-((3R,6'S,7'R,7a'S)-6'-benzoyl-2-oxo-1',6',7',7a'-tetrahydro-3'H-spiro[indoline-3,5'-pyrrolo[1,2-c]thiazol]-7'-yl)phenyl)-N^6-hydroxyadipamide] were, in that order, 140.3 to 141.7 °C, 44% and 60%.
`O=C(CCCCCCCCC(=O)Nc1ccc([C@@H]2[C@H]3CSCN3[C@]3(C(=O)Nc4ccccc43)[C@H]2C(=O)c2ccccc2)cc1)NO` [7q, N^1-(4-((3R,6'S,7'R,7a'S)-6'-benzoyl-2-oxo-1',6',7',7a'-tetrahydro-3'H-spiro[indoline-3,5'-pyrrolo[1,2-c]thiazol]-7'-yl)phenyl)-N^10-hydroxydecanediamide]: the melting point fell in the range of 131.9 to 132.1 °C. In addition, the inhibition at 1 µM on GST-tagged MDM2 was found to be 42%. In addition, at HDAC1, the inhibition at 1 µM is 71%.
For the compound “N^1-(4-((3R,6'S,7'R,7a'S)-6-chloro-2-oxo-6'-(thiophene-2-carbonyl)-1',6',7',7a'-tetrahydro-3'H-spiro[indoline-3,5'-pyrrolo[1,2-c]thiazol]-7'-yl)phenyl)-N^6-hydroxyadipamide [15c]”, the “% enzyme inhibition MDM2” value at GST-tagged MDM2 was 49%. The “% enzyme inhibition HDAC” value on HDAC1 amounted to 70%.
As for “N^1-(4-((3R,6'S,7'R,7a'S)-6-chloro-6'-(4-(dimethylamino)benzoyl)-2-oxo-1',6',7',7a'-tetrahydro-3'H-spiro[indoline-3,5'-pyrrolo[1,2-c]thiazol]-7'-yl)phenyl)-N^6-hydroxyadipamide [7y]”, the “% enzyme inhibition MDM2” value at GST-tagged MDM2 was determined as 54%. Moreover, on HDAC1, the “% enzyme inhibition HDAC” value came to 71%.
Consider “N^1-(4-((3R,6'S,7'R,7a'S)-6-chloro-6'-(furan-2-carbonyl)-2-oxo-1',6',7',7a'-tetrahydro-3'H-spiro[indoline-3,5'-pyrrolo[1,2-c]thiazol]-7'-yl)phenyl)-N^6-hydroxyadipamide [15b]”, for which the “% enzyme inhibition MDM2” value on GST-tagged MDM2 is listed as 48%. Further, the “% enzyme inhibition HDAC” value on HDAC1 is given as 70%.

A word on the inhibition: it is the drop in the measured response relative to a control, in per cent. As a reminder, the melting point is the temperature, or range, at which the solid turns liquid.
